Literature values, collected in patent US20040235753A1, “Oxytocin agonists” (priority 2001, published 2004).
Read-outs that look alike come from different tables or passages of the source.

Test system: erectile response
Conditions: male rats

For `CC[C@H](C)[C@@H]1NC(=O)[C@H](Cc2ccc(O)cc2)NC(=O)[C@@H](N)CSSC[C@@H](C(=O)N2CCC[C@H]2C(=O)N[C@@H](CC(C)C)C(=O)NCC(N)=O)NC(=O)[C@H](CC(N)=O)NC(=O)[C@H](CCC(N)=O)NC1=O` [OT, oxytocin], the erectogenic activity (i.c.v.) is given as “erectogenic” and the erectogenic activity (i.v., doses required up to two orders of magnitude greater than i.c.v.) is given as “erectogenic activity”.
